One experiment has as its system B. cereus (ATCC 14579). Briefly: Nanoplatelet composition vs antibiotic parallel test, B. cereus. Type of experiment: cell-based.
A further experiment has as its system MRSA (S. aureus). Briefly: Nanoplatelet composition vs antibiotic parallel test, MRSA. Type of experiment: cell-based, Staphylococcus aureus. As for the experimental part: The nanoplatelet composition achieved total mitigation of MRSA from a 7 log pathogen population (10 million bacteria per mL) to zero in 3 hours. Levoflaxin, a commonly administered antibiotic used for treating MRSA, was tested at clinical doses and is shown as the dashed line. At various concentrations, the nanoplatelet composition eliminated MRSA more completely than levoflaxin after 24 hours with no rebound.

The test system of the next experiment is S. aureus (VISA). Briefly: Nanoplatelet composition vs antibiotic parallel test, VISA. Type of experiment: cell-based.
In a further experiment the test system is CRE (K. pneumoniae). Briefly: Nanoplatelet composition vs antibiotic parallel test, CRE K. pneumoniae. The format is cell-based.
Another experiment relates to CRE (E. coli). Description: Nanoplatelet composition vs antibiotic parallel test, CRE E. coli. The conditions noted are these: within 24 hours; colistin 2 μg/mL; FIG. 8. The format is cell-based.

Take `O=C(O)c1cn(C2CC2)c2cc(N3CCNCC3)c(F)cc2c1=O` [Cyproflaxin]: the “Log Kill” value in the experiment on B. cereus (ATCC 14579) is 0.5 Log.

As for `C[C@H]1COc2c(N3CCN(C)CC3)c(F)cc3c(=O)c(C(=O)O)cn1c23` [Levoflaxin], the “Log Kill” value in the experiment on MRSA (S. aureus) turned out to be 4.5 Log.

As for `CC(=O)NC[C@H]1CN(c2ccc(N3CCOCC3)c(F)c2)C(=O)O1` [Linezolid], the “Log Kill” value with S. aureus (VISA) is 0.5 Log.

Consider `CN(C)c1cc(NC(=O)CNC(C)(C)C)c(O)c2c1C[C@H]1C[C@H]3[C@H](N(C)C)C(O)=C(C(N)=O)C(=O)[C@@]3(O)C(O)=C1C2=O` [Tigecycline], for which, in the experiment on CRE (K. pneumoniae), the “Log Kill” value is 8 Log and the “Time to Zero” value was 24 h.

For the compound Colistin, in the experiment on CRE (E. coli), the “rebound of bacteria population” value is on record as “completely rebounded”.

Values taken from patent publication US20250302051A1, “COMPOSITIONS WITH NANOPLATELET OXIDES OR HYDROXIDES AND METHODS OF PREPARING AND USING SAME” (Aqua Resources Corporation, priority 2024, published 2025).
